Assay results as given in patent US10799475B2, “Substituted phenyl aziridine precursor analogs for inhibiting androgen-independent prostate cancer cell growth” (Northwestern University, priority 2007, dated 2020).
Residue numbers refer to the chain shown, from its start.

Legend:
GR [1] = biological target: T1, GR (Homo sapiens, UniProt P04150); experiment: EMSA of GR-DNA binding in LNCaP-GR cells; type: cell-based; design: expressed in transfected cells; host or cells: LNCaP-GR (lentiviral GR); also DU145 and PC3 (endogenous GR); conditions: CpdA 10^−5 M, 4 hours
T1 sequence (P04150 1-777): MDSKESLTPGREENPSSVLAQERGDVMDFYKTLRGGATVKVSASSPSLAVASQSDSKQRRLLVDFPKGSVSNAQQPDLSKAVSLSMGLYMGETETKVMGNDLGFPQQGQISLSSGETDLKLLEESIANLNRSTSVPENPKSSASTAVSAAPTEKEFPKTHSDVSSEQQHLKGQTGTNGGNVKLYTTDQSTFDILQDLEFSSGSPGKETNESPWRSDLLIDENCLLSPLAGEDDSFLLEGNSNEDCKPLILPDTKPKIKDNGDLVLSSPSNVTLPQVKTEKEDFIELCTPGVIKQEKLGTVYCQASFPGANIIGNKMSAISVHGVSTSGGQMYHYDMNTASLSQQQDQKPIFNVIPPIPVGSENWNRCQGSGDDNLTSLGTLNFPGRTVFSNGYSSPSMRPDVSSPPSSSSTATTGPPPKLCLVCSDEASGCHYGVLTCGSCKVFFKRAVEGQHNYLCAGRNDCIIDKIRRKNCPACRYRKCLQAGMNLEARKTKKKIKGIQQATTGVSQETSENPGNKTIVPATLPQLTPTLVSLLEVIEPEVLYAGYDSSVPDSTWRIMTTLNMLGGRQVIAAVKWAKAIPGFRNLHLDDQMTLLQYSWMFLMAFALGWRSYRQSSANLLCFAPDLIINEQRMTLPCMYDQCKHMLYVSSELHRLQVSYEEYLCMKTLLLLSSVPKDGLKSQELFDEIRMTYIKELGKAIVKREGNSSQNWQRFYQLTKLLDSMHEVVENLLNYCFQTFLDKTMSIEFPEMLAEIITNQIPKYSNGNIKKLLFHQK

A375 cells = type: cell-based, human; conditions: CpdA 5×10^−6 M, 72 hours
LNCaP-AR^low cells = type: cell-based, human; conditions: CpdA 2×10^−6 M, 1-10 days
GR [2] = biological target: T1, GR; conditions: cited from earlier work
DU145 and PC3 cells = experiment: Apoptosis by PARP cleavage, Western blotting; type: cell-based, human
DU145 cells = type: cell-based, human
B16F10 cells = type: cell-based, mouse; conditions: CpdA 5×10^−6 M, 72 hours
AR [3] = biological target: T2, AR (Homo sapiens, UniProt P10275); conditions: cited from earlier work
T2 sequence (P10275 1-920): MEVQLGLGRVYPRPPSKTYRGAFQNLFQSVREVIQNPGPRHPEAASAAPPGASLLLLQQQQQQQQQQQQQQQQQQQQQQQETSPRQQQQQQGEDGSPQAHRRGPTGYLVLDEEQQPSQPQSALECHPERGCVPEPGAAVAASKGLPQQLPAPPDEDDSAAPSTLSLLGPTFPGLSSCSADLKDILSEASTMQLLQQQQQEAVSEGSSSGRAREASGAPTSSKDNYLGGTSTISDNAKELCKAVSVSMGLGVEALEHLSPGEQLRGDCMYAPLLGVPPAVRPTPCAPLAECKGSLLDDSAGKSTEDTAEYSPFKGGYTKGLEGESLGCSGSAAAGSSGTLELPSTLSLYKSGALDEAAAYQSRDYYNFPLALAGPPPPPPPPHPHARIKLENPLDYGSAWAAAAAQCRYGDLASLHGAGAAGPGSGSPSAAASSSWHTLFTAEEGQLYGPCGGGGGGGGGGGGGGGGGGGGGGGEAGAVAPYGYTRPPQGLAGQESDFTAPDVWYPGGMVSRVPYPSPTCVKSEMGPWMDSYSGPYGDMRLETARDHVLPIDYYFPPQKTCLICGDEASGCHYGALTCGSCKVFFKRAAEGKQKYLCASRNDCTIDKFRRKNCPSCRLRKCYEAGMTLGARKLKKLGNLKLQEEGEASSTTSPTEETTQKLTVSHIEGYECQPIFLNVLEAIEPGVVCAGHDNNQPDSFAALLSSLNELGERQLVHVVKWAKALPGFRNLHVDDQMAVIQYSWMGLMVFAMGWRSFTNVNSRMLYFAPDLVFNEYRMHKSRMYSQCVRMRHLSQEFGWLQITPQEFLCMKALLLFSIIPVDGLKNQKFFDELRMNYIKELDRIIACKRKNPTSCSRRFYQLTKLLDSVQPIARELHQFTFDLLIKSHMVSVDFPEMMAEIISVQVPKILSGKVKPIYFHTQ

C8161 cells = type: cell-based, human; conditions: CpdA 5×10^−6 M, 72 hours
PC3 cells = type: cell-based, human
LNCaP cells = type: cell-based, human; conditions: 5 μM CpdA, 1-12 days
NF-κB = experiment: κB.Luc dual Luciferase assay of GR transrepression in PC cells; type: cell-based, human; conditions: all studied prostate cells, basal and IKKβ-induced, CpdA 10^−5 M, 24 hours
PC3 and LNCaP-GR cells = type: cell-based, human
AR [4] = biological target: T3, AR (Homo sapiens, UniProt P10275, T878A); experiment: AR nuclear translocation, Western blot and immunofluorescence in LNCaP cells; type: cell-based; conditions: 16 hours
T3 construct: epithelial cells expressing endogenous AR, LNCaP prostate cells were studied; endogenous in cells; host or cells: LNCaP
T3 sequence (P10275 1-920 T878A): T2 sequence (P10275 1-920) with T878A

LNCaP-GR cells = type: cell-based, human; conditions: monolayer and colony-forming assay, data not shown
GR [5] = biological target: T1, GR; experiment: GR nuclear translocation, Western blotting and immunofluorescence in LNCaP-GR cells; type: cell-based; design: expressed in transfected cells; host or cells: LNCaP-GR (lentiviral GR); also DU145 and PC3 (endogenous GR)
AR [6] = biological target: T3, AR; experiment: EMSA of AR-DNA binding in LNCaP cells; type: cell-based
PWR-1E cells = type: cell-based; conditions: tested range of concentrations
[7] = rodents, proposed concentration 12.5 mg/kg; cited from earlier work
GR [8] = biological target: T1, GR; experiment: TAT.Luc dual Luciferase assay of GR transactivation in PC cells; type: cell-based; design: expressed in transfected cells; host or cells: LNCaP-GR (lentiviral GR); also DU145 and PC3 (endogenous GR); conditions: 24 hours
Protocol: FIG. 3. Effect of CpdA on GR function in PC cells. A. & B. CpdA-activated GR nuclear translocation. Cells were treated with CpdA, glucocorticoid FA, or anti-glucocorticoid RU486. Panel A (immunofluorescence). Panel B (Western blotting of nuclear protein using HDAC-1 and β-tubulin as protein loading controls). C. CpdA decreased GR-DNA binding (EMSA, nuclear proteins). LNCaP-GR cells were treated with 0.01% DMSO (control), Dex (10^−7 M) or CpdA (10^−5 M) for 4 hours. D. & E. CpdA effect on GR function. PC cells were transiently transfected with TAT.Luc (D) or κB.Luc (E), and control Renilla Luciferase reporters, treated with Dex (10^−6 M) or CpdA (10^−5 M) for 24 hours. For activation of NF-κB, cells were co-transfected with CMV.IKKβ plasmid (in panel E). Reporter activity was assessed by dual Luciferase assay and presented as factor of change.
FIG. 4. CpdA effect on GR function. A. & B. PC cells were transiently transfected with TAT.Luc (A) or κB.Luc (B), and control Renilla Luciferase reporters. Cells were treated with Dex (10^−6 M) and CpdA (10^−5 M) for 24 hours. For activation of NF-κB (as shown in panel B), cells were co-transfected with CMV.IKKβ plasmid. Reporter activity was assessed by dual Luciferase assay and presented as factor of change. […]

PC cells = type: cell-based, human; conditions: 72 hours
AR [9] = biological target: T3, AR; type: cell-based; conditions: LNCaP cells, CpdA 2×10^−6 M, 24 hours, basal and DHT 10^−7 M
[10] = CpdA 10^−9 M−2×10^−5 M, 72 hours

Which GR-DNA binding (GR [1]) does the source give for `CNCC(Cl)c1ccc(OC(C)=O)cc1.Cl` (centres unmarked) [CpdA, 2-(4-acetoxyphenyl)-2-chloro-N-methyl-ethylammonium chloride] here?
Its GR-DNA binding is “constitutively inhibit glucocorticoid-induced GR-DNA binding”.

And the growth inhibition (A375 cells)?
Its growth inhibition is “strongly inhibited growth”.

What about the growth inhibition (LNCaP-AR^low cells) of the same compound?
The growth inhibition was “resistant”.

What about the “competition for GR binding” value (GR [2]) of the same compound?
The value was “competes with glucocorticoids for GR binding”.

What about the “treatment time after which apoptosis is induced (PARP cleavage)” value (DU145 and PC3 cells; CpdA 2×10^−6 M) of the same compound?
Its value is 6 to 8 days.

What about the “treatment time after which cells are sensitized to TNFα-induced apoptosis” value (DU145 and PC3 cells; CpdA then TNFα 10 ng/ml for 16 hours) of the same compound?
The value was 2 days.

What about the “growth inhibition vs vehicle-treated control” value (DU145 cells) of the same compound?
The value was 60-65%.

What about the “growth inhibition, concentration-dependent” value (DU145 cells; [10]) of the same compound?
The value was “strongly inhibit”.

And the growth inhibition (B16F10 cells)?
Its growth inhibition is “strongly inhibited growth”.

What about the “competition for AR binding” value (AR [3]) of the same compound?
Its value is “does not compete with androgen for AR binding”.

And the growth inhibition (C8161 cells)?
The growth inhibition was “strongly inhibited growth”.

What about the “growth inhibition vs vehicle-treated control” value (PC3 cells) of the same compound?
Its value is 65-85%.

And the “growth inhibition, concentration-dependent” value (PC3 cells; [10])?
Its value is “strongly inhibit”.

What about the growth inhibition (LNCaP cells) of the same compound?
Its growth inhibition is “strong growth inhibition”.

What about the “NF-κB function (κB.Luc)” value (NF-κB) of the same compound?
The value was “strongly inhibited”.

What about the “sensitivity to CpdA after GR blockage” value (PC3 and LNCaP-GR cells) of the same compound?
The value was “drastic loss of sensitivity”.

And the AR nuclear translocation (AR [4])?
The AR nuclear translocation was “induce AR nuclear translocation”.

What about the “sensitivity to growth inhibition vs control cells infected with empty virus” value (LNCaP-GR cells) of the same compound?
Its value is “significantly more sensitive”.

What about the GR nuclear translocation (GR [5]) of the same compound?
Its GR nuclear translocation is “induce GR nuclear import”.

What about the “AR DNA binding” value (AR [6]) of the same compound?
Its value is “constitutively inhibit AR DNA binding and especially DHT-induced AR DNA binding”.

What about the growth inhibition (PWR-1E cells) of the same compound?
Its growth inhibition is “rather resistant”.

And the anti-inflammatory effect [7]?
Its anti-inflammatory effect is “strong anti-inflammatory effect”.

What about the “GR transcriptional activation (TAT.Luc)” value (GR [8]; LNCaP-GR, DU145 and PC3 cells, CpdA 10^−5 M) of the same compound?
The value was “inhibit GR transcriptional activation”.

What about the “concentration range of strong cytostatic effect” value (PC cells) of the same compound?
Its value is 2−10 μM.

And the AR transcriptional activity (AR [9])?
Its AR transcriptional activity is “inhibited basal and DHT-induced transcriptional activity of AR”.

For `CC1(C)O[C@@H]2C[C@H]3[C@@H]4C[C@H](F)C5=CC(=O)C=C[C@]5(C)[C@@]4(F)[C@@H](O)C[C@]3(C)[C@]2(C(=O)CO)O1` [FA, fluocinolone acetonide, reference compound], which “induction of TAT.Luc reporter activity” value (GR [8]; PC cells) is on record?
Its value is 10-15 folds.
